Test results reported in patent publication US11311522B1 (Cavion, Inc., priority 2018, dated 2022).
Like-named read-outs stand apart in the source and are kept apart here.

Experiments:
in vivo [1] = conditions: rat, po
[2] = T-CALM: plasma concentrations by 5-in-1 LC/MS/MS; assay type: in vivo, human; conditions: for Plasma concentration, mean: trough
Description: Additionally, at Visit 4, a post-dose sample will be collected as close to 4 hours post-dose as possible, but within the window of 4-6 hours post-dose (i.e., a total of two PK samples are collected at Visit 4.)
Assay performances were satisfactory and met acceptance criteria for system performance suitability, quantitation range, calibration linearity, assay accuracy and precision, and assay recovery.

in vivo [3] = conditions: female, rat, po, 10 mg/kg/day
[4] = Single-dose toxicokinetic study in dogs; assay type: in vivo; conditions: dog, plasma, po, 800 mg/kg
in vivo [5] = conditions: Beagle, dog, po, 300 mg/kg
[6] = biological target: T1, breast cancer resistance protein (BCRP) (Homo sapiens, UniProt Q9UNQ0); experiment: BCRP transport; assay type: in vitro ADME; conditions: 30 μM
T1 sequence (Q9UNQ0 1-655): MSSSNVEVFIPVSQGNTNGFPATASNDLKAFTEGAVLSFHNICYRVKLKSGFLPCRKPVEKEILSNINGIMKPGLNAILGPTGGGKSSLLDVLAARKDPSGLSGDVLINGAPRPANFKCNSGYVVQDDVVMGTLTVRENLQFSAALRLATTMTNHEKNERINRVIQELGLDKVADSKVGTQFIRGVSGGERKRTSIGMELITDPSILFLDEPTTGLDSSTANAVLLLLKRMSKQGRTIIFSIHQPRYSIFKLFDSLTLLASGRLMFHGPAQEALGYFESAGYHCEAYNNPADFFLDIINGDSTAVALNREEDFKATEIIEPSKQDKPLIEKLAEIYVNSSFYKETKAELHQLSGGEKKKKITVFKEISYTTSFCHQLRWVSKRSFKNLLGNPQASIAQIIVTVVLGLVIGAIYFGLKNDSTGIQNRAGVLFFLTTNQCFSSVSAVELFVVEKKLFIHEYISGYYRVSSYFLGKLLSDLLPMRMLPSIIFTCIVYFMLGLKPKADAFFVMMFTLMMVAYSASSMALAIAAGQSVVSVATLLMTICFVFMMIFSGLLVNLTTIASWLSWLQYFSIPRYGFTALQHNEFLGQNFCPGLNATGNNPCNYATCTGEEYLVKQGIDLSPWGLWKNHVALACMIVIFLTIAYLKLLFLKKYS
Description: (§1) Glucuronide conjugates of the oxygenated metabolites are detected in human, monkey, and dog hepatocyte preparations. […] However, the abundance of CYP3A5, CYP2C19, and CYP2D6 in human liver microsomes is low (2%-5%) relative to the primary contributors, CYP3A4 (˜30%) and CYP2C9 (˜20%). […] Information on reproductive and developmental toxicology was obtained in a 28-day pivotal female fertility study in rats and in preliminary embryo-fetal development studies in rats and rabbits.

[7] = biological target: human peroxisome proliferator-activated receptor gamma (PPARγ) (Homo sapiens, UniProt P37231); experiment: PPARγ binding
Chain of human peroxisome proliferator-activated receptor gamma (PPARγ) (P37231 whole entry): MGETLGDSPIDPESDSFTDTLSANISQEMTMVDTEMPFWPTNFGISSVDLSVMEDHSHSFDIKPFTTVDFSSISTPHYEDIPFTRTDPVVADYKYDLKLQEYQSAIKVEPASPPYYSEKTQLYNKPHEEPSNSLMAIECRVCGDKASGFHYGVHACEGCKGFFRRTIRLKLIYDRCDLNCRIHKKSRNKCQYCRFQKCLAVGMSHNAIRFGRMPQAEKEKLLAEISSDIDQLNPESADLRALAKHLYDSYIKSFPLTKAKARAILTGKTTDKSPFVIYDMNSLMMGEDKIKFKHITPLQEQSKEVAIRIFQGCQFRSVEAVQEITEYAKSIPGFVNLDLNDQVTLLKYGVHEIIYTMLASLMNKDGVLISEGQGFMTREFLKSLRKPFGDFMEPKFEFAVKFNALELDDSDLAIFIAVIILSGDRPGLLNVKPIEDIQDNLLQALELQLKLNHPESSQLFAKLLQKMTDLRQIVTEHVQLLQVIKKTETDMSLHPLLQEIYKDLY

[8] = Phase 1 multiple-dose pharmacokinetics (PN002/Part II); conditions: for half-life / AUC / Cmax: human, plasma
CYP2B6 = CYP2B6 mRNA induction in human hepatocytes; assay type: in vitro ADME
Description: as §1

[9] = Phase 1 single-dose pharmacokinetics (PN001, PN002/Part I, PN003, PN005); assay type: in vivo, human; conditions: 8 mg CX-8998
CYP2C9 = biological target: T2, CYP2C9 (Homo sapiens, UniProt P11712); experiment: In vitro metabolism (liver microsomes, hepatocytes, recombinant CYPs, anti-CYP antibodies); assay type: in vitro ADME; conditions: recombinant CYP2C9
T2 construct: host or cells: pooled liver microsomes, hepatocytes and recombinant CYP enzymes
T2 sequence (P11712 whole entry): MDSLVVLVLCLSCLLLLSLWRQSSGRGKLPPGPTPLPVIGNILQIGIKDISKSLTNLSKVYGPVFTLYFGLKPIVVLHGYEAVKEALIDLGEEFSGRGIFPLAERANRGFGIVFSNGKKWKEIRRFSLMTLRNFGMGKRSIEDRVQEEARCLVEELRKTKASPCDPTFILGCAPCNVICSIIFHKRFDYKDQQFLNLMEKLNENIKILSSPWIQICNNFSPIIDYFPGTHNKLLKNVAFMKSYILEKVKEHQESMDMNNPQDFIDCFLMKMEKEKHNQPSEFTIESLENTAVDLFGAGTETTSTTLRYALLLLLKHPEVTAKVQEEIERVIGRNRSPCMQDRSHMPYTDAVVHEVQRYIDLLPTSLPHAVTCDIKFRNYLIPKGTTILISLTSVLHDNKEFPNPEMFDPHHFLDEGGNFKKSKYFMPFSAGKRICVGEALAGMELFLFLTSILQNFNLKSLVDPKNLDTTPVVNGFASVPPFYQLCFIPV
Description: as §1

[10] = Pharmacokinetics in rhesus monkeys; assay type: in vivo, rhesus monkey
Description: The validity and reproducibility of the assays were determined, and the precision and accuracy for calibration standards and quality control samples were examined. […] The analytes were stable in plasma under the storage and assay conditions. […] Assay performances were satisfactory and met acceptance criteria for system performance suitability, quantitation range, calibration linearity, assay accuracy and precision, and assay recovery.

[11] = Brain penetration in male rats; assay type: in vivo; conditions: rat, 25 mg/kg
[12] = M01, Day 7, CX-8998 2 mg once daily
[13] = M01, Day 7, CX-8998 18 mg once daily

C=C(C)c1ccc(CC(=O)N[C@H](C)c2ccc(OCC(F)(F)F)cn2)cc1 [M01]
AUC (in vivo [1]; female, 5 mg/kg): 5.02 µM·h
AUC (in vivo [1]; female, 15 mg/kg): 20.3 µM·h
AUC (in vivo [1]; female, 100 mg/kg): 231 µM·h
AUC (in vivo [1]; female, 300 mg/kg): 234 µM·h
AUC (in vivo [1]; male, 5 mg/kg): 4.33 µM·h
AUC (in vivo [1]; male, 15 mg/kg): 11.3 µM·h
AUC (in vivo [1]; male, 100 mg/kg): 85.9 µM·h
AUC (in vivo [1]; male, 300 mg/kg): 125 µM·h
Plasma concentration, mean ([2]; Visit 2 (Day 8), 4 mg BID): 398 nM
Plasma concentration, mean ([2]; Visit 3 (Day 15), 8 mg BID): 812 nM
Plasma concentration, mean ([2]; Visit 4 (Day 28), 10 mg BID): 1023 nM
concentration at 4 h ([2]; human, plasma, oral, Visit 4 (Day 28), 10 mg BID, 4 hours post-dose): 976 nM
AUC (in vivo [3]): 8.11 µM·h
Cmax (in vivo [3]): 2660 nM
Tmax ([4]; female): 8 h
Tmax ([4]; male): 8 h
Kp at 24 h (in vivo [5]; female, CSF): 0.112
concentration at 24 h (in vivo [5]; female, CSF): 112 nM
Kp at 24 h (in vivo [5]; female, brain (frontal cortex)): 0.696
concentration at 24 h (in vivo [5]; female, brain (frontal cortex)): 696 nM
Kp at 24 h (in vivo [5]; female, brain (thalamus)): 0.772
concentration at 24 h (in vivo [5]; female, brain (thalamus)): 772 nM
Kp at 24 h (in vivo [5]; male, CSF): 0.149
concentration at 24 h (in vivo [5]; male, CSF): 149 nM
Kp at 24 h (in vivo [5]; male, brain (frontal cortex)): 0.19
concentration at 24 h (in vivo [5]; male, brain (frontal cortex)): 190 nM
Kp at 24 h (in vivo [5]; male, brain (thalamus)): 0.208
concentration at 24 h (in vivo [5]; male, brain (thalamus)): 208 nM
Inhibition of BCRP transport [6]: 57%
inhibition at 10 µM [7]: 54%
AUC Ratio, metabolite to parent [8, 12]: 1.12
Cmax Ratio, metabolite to parent [8, 12]: 0.36
Cmax Ratio, metabolite to parent ([8]; M01, Day 7, CX-8998 4 mg once daily): 0.36
AUC Ratio, metabolite to parent ([8]; M01, Day 7, CX-8998 12 mg once daily): 1.15
AUC Ratio, metabolite to parent [8, 13]: 1.34
Cmax Ratio, metabolite to parent [8, 13]: 0.57
Relative potency (CX-8998 = 1.00) ([8]; based on potency, free fraction, maximum Cmax ratios): 0.27
half-life ([8]; 2 mg): 25.8 h
AUC ([8]; 2 mg, AUC24, M01, Day 7, CX-8998 2 mg once daily): 1.52 µM·h
Cmax ([8]; 2 mg, M01, Day 7, CX-8998 2 mg once daily): 76 nM
AUC ([8]; 4 mg, AUC24, M01, Day 7, CX-8998 4 mg once daily): 2.83 µM·h
Cmax ([8]; 4 mg, M01, Day 7, CX-8998 4 mg once daily): 136 nM
half-life ([8]; 12 mg): 22.6 h
half-life ([8]; 18 mg): 19 h
AUC ([8]; 18 mg, AUC24, M01, Day 7, CX-8998 18 mg once daily): 18.3 µM·h
Cmax ([8]; 18 mg, M01, Day 7, CX-8998 18 mg once daily): 865 nM
half-life ([8]; male, oral): 19 to 25.8 h
CYP2B6 induction (CYP2B6): mild to moderate inducers
AUCinf, middle-aged and elderly female vs male subjects [9]: 2% lower
Cmax, middle-aged and elderly female vs male subjects [9]: 12% lower
KM for CYP2C9 reactions (formation) (CYP2C9): ~3 µM
Ratio of AUC24 (metabolite/CX-8998) ([10]; Monkey, Male, single oral dose 2 mg/kg of CX-8998): 0.24
AUC ([10]; male, rhesus monkey, plasma, po, 2 mg/kg, read-out: AUC24): 0.5 µM·h
Kp at 2 h ([11]; brain and plasma, oral, read-out: Brain-to-plasma ratio): 0.27
Kp at 2 h ([11]; brain, po, read-out: Brain: Plasma Ratio): 0.27
